Values quoted from earlier work as cited in patent US20170202932A1, “METHODS FOR INHIBITING NEURON APOPTOSIS AND NECROSIS” (NEWSOUTH INNOVATIONS PTY LIMITED, priority 2012, published 2017).

Assays:
[1] = test system: other TRPC channels; settings: cited from earlier work
[2] = biological target: T1, TRPC3 (Homo sapiens, UniProt Q13507); settings: cited from earlier work
T1 sequence (Q13507 1-921): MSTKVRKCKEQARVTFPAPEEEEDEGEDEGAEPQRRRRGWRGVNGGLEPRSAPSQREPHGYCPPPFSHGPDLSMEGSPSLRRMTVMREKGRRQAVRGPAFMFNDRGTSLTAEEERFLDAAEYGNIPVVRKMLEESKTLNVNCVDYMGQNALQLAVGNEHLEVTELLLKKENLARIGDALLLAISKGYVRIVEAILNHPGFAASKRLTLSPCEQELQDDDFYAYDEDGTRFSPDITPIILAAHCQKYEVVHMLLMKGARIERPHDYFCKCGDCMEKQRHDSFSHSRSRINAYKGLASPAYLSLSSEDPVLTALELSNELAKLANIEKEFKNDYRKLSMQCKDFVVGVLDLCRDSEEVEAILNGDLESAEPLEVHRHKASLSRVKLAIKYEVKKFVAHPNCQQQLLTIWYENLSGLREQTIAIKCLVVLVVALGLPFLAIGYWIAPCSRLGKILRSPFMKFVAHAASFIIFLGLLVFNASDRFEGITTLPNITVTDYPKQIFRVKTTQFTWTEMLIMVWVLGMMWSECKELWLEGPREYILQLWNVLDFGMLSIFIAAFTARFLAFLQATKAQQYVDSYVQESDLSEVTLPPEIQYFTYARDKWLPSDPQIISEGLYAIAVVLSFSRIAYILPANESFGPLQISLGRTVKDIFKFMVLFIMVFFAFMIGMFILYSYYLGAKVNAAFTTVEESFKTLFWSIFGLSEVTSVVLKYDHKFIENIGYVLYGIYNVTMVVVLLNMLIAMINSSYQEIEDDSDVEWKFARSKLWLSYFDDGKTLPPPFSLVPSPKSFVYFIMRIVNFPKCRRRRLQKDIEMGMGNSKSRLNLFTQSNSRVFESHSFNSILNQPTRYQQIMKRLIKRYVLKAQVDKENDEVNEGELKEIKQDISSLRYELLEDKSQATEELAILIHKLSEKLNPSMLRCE

CCOC(=O)c1cnn(-c2ccc(NC(=O)C(Cl)=C(Cl)Cl)cc2)c1C(F)(F)F [Pyr3, ethyl-1-(4-(2,3,3-trichloroacrylamide)phenyl)-5-(trifluoromethyl)-1H-pyrazole-4-carboxylate]
effect on other TRPC channels [1]: no effect | inhibition of TRPC3-mediated Ca2+ influx [2]: selectively inhibit
